US20250120967A1, “TYROSINE KINASES INHIBITORS AND USES THEREOF” (GREAT NOVEL THERAPEUTICS BIOTECH & MEDICALS CORPORATION, priority 2023, published 2025)

What was measured:
Assay in all cases: Tyrosine kinase inhibition assay
Type in all cases: biochemical
Conditions in all cases: single concentration 1.0 μM, read-out: percent inhibition
ALK = ALK (Homo sapiens, UniProt Q9UM73)
Procedure: (§1) Tyrosine kinase inhibition assays were performed at ThermoFisher Life Technologies (Madison, WI, USA) using standard protocols (SelectScreen Biochemical Profiling Service, Thermo Fisher Scientific). ATP concentrations used were at the apparent Km. Test compounds were screened in 1% dimethylsulffoxide (DMSO) (final concentration) in the well. For 10-point titrations, 3-fold serial dilutions were conducted from the starting concentration of […]. All Peptide/Kinase Mixtures were diluted to a 2× working concentration in the appropriate Kinase Buffer. All ATP Solutions were diluted to a 4× working concentration in Kinase Buffer (50 mM HEPES pH 7.5, 0.01% BRIJ-35, 10 mM MgCl2, 1 mM EGTA). The apparent ATP Km was previously determined using a Z′-LYTE assay. The Development Reagent was diluted in Development Buffer.
(§2) The inhibition activities of compounds were determined in biochemical assays using single concentration (1.0 μM) measurements. The results were provided as percent inhibition values. A compound displaying a percent inhibition value of greater 80% was defined as a hit. 99 different tyrosine kinases were used.

AURKA (Aurora A) = target: T1, AURKA (Aurora A) (Homo sapiens, UniProt O14965)
T1 sequence (O14965 1-403): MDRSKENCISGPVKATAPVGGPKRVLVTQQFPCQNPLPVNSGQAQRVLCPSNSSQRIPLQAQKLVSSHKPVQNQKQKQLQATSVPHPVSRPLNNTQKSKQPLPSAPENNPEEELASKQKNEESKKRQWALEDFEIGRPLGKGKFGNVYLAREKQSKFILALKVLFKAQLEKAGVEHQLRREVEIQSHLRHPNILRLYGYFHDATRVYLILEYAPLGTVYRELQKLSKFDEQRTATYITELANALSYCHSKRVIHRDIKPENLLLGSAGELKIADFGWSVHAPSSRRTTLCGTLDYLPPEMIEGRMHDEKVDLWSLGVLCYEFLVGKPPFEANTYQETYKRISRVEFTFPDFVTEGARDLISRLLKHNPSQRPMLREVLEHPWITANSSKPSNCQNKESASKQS
Procedure: as §1, §2

EPHB1 = target: T2, EPHB1 (Homo sapiens, UniProt P54762)
T2 sequence (P54762 18-984): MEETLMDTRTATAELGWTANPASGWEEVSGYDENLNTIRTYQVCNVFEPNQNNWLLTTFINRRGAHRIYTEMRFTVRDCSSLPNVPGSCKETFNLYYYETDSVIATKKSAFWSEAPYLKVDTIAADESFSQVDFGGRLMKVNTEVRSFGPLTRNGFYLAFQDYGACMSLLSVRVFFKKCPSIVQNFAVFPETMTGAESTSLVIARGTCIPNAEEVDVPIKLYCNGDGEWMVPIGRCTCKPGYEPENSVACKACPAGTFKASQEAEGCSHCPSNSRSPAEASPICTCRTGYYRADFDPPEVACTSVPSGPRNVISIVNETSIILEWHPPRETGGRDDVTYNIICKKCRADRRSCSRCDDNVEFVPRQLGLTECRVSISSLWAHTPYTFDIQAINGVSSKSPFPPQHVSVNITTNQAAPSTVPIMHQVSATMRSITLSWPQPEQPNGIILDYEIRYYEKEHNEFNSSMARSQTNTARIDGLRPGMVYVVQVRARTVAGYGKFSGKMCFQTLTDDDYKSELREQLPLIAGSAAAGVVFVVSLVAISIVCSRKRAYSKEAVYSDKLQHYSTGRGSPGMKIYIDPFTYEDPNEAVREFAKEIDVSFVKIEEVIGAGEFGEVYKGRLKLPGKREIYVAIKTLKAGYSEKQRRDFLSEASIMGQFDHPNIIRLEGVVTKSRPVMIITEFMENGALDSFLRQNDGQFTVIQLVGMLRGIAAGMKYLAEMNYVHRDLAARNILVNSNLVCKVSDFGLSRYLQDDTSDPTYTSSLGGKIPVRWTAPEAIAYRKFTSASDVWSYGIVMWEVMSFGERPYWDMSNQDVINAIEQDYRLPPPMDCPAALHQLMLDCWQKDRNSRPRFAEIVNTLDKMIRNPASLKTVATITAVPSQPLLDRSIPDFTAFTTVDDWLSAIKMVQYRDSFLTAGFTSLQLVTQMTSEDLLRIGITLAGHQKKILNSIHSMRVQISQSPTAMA
Procedure: as §1, §2

FES (FPS) = FES (FPS) (Homo sapiens, UniProt P07332)
Chain of FES (FPS) (P07332 whole entry): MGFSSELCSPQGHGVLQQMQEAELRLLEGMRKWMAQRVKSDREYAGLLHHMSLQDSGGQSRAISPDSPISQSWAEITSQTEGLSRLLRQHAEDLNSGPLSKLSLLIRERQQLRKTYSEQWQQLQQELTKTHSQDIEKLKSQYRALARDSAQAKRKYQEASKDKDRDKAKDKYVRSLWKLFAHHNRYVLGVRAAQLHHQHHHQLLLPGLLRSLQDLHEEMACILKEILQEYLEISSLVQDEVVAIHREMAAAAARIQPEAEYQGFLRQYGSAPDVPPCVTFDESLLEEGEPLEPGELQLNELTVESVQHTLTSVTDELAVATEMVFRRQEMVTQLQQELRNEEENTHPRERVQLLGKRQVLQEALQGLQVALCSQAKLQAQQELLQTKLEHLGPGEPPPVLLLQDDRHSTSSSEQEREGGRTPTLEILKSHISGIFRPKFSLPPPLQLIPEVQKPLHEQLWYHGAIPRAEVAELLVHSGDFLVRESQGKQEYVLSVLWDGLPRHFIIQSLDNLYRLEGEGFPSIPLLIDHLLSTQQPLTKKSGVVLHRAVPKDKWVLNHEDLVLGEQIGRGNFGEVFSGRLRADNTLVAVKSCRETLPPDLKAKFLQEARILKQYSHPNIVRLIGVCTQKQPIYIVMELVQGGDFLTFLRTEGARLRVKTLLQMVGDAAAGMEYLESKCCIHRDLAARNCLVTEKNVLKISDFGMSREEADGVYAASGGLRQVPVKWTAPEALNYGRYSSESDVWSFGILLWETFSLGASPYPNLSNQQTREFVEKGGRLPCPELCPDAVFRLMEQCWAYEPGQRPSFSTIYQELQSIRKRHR
Procedure: as §1, §2

FGFR2 = FGFR2 (Homo sapiens, UniProt P21802)
Procedure: as §1, §2

FGFR4 = FGFR4 (Homo sapiens, UniProt P22455)
Procedure: as §1, §2

MATK (HYL) = target: T3, MATK (HYL) (Homo sapiens, UniProt P42679)
T3 sequence (P42679 1-507): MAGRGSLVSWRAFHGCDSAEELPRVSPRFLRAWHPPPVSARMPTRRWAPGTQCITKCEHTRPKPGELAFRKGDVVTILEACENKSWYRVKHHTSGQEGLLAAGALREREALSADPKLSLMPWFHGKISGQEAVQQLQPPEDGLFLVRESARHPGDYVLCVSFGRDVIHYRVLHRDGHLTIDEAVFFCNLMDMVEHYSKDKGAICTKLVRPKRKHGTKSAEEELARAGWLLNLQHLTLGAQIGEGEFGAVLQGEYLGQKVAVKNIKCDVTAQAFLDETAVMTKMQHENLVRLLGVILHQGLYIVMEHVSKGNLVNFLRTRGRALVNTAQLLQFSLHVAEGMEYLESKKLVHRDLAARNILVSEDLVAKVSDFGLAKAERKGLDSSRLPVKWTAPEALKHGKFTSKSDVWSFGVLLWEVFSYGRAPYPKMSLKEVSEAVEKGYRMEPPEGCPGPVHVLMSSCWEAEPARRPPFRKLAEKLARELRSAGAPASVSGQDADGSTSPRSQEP
Procedure: as §1, §2

NTRK1 (TRKA) = NTRK1 (TRKA) (Homo sapiens, UniProt P04629)
Chain of NTRK1 (TRKA) (P04629 33-796): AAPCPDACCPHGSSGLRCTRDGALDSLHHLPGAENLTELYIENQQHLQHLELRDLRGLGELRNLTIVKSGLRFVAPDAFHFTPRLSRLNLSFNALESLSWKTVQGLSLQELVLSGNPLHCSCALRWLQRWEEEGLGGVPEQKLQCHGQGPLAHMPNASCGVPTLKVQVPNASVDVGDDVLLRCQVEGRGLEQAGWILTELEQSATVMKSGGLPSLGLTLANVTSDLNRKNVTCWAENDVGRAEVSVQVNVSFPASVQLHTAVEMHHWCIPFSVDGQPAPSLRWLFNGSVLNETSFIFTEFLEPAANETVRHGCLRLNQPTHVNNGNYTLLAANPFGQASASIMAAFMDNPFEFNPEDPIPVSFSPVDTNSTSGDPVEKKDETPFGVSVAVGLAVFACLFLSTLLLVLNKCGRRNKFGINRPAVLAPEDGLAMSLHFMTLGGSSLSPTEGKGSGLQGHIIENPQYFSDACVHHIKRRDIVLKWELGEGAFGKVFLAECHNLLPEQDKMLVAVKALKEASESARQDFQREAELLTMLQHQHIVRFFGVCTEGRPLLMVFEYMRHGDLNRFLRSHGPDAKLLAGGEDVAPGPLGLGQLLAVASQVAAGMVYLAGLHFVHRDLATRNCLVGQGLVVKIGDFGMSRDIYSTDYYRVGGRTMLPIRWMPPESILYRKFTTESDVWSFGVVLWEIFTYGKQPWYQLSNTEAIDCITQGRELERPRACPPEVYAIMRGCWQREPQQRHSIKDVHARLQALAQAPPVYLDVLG
Procedure: as §1, §2

PIK3C2A (PI3K-C2 alpha) = PIK3C2A (PI3K-C2 alpha) (Homo sapiens, UniProt O00443)
Chain of PIK3C2A (PI3K-C2 alpha) (O00443 whole entry): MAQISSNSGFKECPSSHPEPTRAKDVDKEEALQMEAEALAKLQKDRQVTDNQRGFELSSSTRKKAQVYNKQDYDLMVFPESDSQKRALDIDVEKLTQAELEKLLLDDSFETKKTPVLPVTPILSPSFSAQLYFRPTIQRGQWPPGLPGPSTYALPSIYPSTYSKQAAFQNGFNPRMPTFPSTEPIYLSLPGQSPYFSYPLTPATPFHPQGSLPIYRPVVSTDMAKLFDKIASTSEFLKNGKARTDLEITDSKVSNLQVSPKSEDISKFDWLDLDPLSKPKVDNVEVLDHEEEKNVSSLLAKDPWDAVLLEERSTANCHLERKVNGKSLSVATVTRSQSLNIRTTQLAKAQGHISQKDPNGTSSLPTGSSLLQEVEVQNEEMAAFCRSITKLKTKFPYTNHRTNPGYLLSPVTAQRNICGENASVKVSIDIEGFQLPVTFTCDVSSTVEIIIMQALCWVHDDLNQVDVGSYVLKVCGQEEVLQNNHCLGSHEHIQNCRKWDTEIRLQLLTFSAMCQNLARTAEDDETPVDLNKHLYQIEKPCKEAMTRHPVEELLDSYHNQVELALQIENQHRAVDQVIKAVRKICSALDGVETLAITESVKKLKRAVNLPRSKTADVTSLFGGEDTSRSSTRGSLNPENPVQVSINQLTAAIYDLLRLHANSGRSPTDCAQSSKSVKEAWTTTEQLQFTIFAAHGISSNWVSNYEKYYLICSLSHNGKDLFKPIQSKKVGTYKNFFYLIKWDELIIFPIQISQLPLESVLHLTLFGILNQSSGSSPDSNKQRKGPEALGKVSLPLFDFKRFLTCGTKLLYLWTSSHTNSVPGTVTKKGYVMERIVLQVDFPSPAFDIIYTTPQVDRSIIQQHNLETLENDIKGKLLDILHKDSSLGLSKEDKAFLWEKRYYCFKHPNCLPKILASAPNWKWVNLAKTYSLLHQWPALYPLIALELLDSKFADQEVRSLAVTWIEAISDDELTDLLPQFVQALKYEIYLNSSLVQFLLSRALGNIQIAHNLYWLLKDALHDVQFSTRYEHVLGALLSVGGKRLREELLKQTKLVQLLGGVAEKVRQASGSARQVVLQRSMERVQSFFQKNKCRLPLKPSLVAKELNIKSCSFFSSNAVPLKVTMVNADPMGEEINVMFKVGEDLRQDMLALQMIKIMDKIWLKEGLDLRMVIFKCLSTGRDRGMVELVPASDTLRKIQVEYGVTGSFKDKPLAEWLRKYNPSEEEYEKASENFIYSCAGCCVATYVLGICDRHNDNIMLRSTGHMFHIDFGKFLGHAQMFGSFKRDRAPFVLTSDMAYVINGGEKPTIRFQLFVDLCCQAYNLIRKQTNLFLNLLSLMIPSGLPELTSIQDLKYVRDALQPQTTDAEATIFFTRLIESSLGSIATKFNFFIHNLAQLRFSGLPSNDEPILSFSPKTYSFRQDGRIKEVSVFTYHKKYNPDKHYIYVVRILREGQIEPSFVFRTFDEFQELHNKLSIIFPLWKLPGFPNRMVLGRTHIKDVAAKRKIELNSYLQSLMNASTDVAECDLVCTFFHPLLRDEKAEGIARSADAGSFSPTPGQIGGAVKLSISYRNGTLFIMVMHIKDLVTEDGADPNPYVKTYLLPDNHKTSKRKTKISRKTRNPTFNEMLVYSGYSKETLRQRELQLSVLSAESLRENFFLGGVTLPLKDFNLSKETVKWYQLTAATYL
Procedure: as §1, §2

RAF1 (cRAF) Y340D Y341D = RAF1 (cRAF) Y340D Y341D (Homo sapiens, UniProt P04049, Y340D/Y341D)
Procedure: as §1, §2

SYK = SYK (Homo sapiens, UniProt P43405)
Procedure: as §1, §2

Chain of ALK (Q9UM73 19-1620): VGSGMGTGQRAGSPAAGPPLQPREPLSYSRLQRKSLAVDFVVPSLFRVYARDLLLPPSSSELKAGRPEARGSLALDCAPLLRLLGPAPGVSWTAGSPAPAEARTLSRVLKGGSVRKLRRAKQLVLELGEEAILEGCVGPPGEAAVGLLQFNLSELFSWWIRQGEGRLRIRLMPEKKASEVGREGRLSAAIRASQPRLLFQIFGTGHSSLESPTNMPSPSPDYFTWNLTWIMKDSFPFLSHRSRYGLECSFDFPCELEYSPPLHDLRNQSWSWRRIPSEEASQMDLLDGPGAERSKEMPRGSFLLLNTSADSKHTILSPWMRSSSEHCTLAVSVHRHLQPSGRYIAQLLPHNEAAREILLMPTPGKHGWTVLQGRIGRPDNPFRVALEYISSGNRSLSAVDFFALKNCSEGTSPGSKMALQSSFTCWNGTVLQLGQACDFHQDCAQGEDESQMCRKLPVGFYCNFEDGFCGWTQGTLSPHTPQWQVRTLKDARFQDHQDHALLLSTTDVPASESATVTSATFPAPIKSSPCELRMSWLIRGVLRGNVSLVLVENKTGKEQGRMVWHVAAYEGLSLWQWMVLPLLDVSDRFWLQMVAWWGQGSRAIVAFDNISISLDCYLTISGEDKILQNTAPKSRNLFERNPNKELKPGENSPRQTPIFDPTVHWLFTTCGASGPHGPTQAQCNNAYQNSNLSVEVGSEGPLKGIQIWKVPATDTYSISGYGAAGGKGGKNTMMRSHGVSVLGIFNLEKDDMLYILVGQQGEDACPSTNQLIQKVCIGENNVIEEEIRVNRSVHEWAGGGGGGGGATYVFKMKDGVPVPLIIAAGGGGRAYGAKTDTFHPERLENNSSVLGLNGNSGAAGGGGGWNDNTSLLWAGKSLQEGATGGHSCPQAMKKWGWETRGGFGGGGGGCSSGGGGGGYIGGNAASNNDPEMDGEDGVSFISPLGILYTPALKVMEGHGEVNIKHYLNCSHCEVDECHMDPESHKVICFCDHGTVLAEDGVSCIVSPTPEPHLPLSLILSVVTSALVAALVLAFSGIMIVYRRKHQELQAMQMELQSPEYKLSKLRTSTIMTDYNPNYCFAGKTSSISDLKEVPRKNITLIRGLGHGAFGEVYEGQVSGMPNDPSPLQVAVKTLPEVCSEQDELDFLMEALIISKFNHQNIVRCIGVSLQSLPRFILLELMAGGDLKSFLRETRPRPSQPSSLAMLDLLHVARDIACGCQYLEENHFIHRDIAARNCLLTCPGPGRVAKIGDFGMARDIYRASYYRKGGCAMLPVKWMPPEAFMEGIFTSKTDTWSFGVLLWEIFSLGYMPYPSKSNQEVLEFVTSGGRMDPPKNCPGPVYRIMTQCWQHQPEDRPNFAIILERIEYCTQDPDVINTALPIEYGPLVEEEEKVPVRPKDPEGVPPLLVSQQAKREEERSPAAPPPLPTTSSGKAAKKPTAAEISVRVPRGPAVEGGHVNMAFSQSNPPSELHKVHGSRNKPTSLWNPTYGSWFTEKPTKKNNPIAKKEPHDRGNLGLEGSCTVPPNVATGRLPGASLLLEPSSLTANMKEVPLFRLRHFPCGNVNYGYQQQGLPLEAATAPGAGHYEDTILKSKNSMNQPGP

| Structure (SMILES) | inhibition at 1 µM (ALK) | inhibition at 1 µM (AURKA (Aurora A)) | inhibition at 1 µM (EPHB1) | inhibition at 1 µM (FES (FPS)) | inhibition at 1 µM (FGFR2) | inhibition at 1 µM (FGFR4) | inhibition at 1 µM (MATK (HYL)) | inhibition at 1 µM (NTRK1 (TRKA)) | inhibition at 1 µM (PIK3C2A (PI3K-C2 alpha)) | inhibition at 1 µM (RAF1 (cRAF) Y340D Y341D) | inhibition at 1 µM (SYK) |
| --- | --- | --- | --- | --- | --- | --- | --- | --- | --- | --- | --- |
| COc1cc2nccc(Oc3ccc(NC(=O)C4(C(=O)Nc5ccc(F)cc5)CC4)cc3)c2cc1OC [Cabozantinib, reference compound] | 28% | 55% | 99% | 30% | 16% | -2% | 10% | 98% | 1% | 66% | 16% |
| COc1cc2nccc(Oc3ccc(NC(=O)C4(NC(=O)c5ccc(F)cc5)CC4)cc3F)c2cc1OC [Cbo-02, N-(1-((4-((6,7-diMethoxyquinolin-4-yl)oxy)-3-fluorophenyl)carbamoyl)cyclopropyl)-4-fluorobenzamide] | 20% | 75% | 37% | 38% | 22% | 0% | 7% | 58% | 1% | -8% | 14% |
| COc1cc2nccc(Oc3ccc(NC(=O)C4(NC(=O)c5ccc(F)cc5)CC4)cc3F)c2cc1Oc1ccc(N)cc1F [Cbo-10] | 36% | 92% | 74% | 80% | 29% | 1% | 5% | 80% | -1% | 3% | 24% |
| COc1cc2nccc(Oc3ccc(NC(=O)C4(NC(=O)c5ccc(F)cc5)CC4)cc3F)c2cc1Oc1c(F)cc(N)cc1F [Cbo-14] | 32% | 89% | 75% | 78% | 37% | -1% | 8% | 71% | 1% | 3% | 27% |
| COc1cc2nccc(Oc3ccc(NC(=O)C4(C(=O)Nc5ccc(F)cc5)CC4)cc3F)c2cc1Oc1ccc(N)cc1F [Cbo-23] | 78% | 55% | 99% | 58% | 5% | 13% | 8% | 97% | -9% | 40% | 15% |
